Reference: patent US11304919B2, “Utilization of cilastatin in inhibiting renal disorder” (NIIGATA UNIVERSITY, priority 2018, dated 2022)

What was measured:
C57BL/6J mice [1] = test: Murine model of contrast nephropathy (Reference Example 1); format: in vivo, mouse
Protocol: Murine models of contrast nephropathy were constructed.
Left kidneys were extracted from C57BL/6J mice (male, aged 9-12 weeks, Charles River Laboratories International), and 14 days later, right kidney pedicles were ligated for 30 minutes. Thereafter, reperfusion was carried out. For the iomeprol-treated group, 200 μL of iomeprol was administered from the tail vein after 24 hours from the start of reperfusion. For the control group, 200 μL of normal saline instead of iomeprol was administered from the tail vein. After 48 hours from the administration, the animals in both groups were euthanized and evaluated.
For 24 hours before euthanization, urine samples were collected using a metabolic cage. […] The collected blood samples were centrifuged for 30 minutes at 800 g at room temperature to separate and collect the serum. The obtained urine and serum samples were stored at −80° C. until analysis.
For biochemical evaluation of renal injuries, serum creatinine (Cr) and urea nitrogen (MN) levels, and urinary Cr and β-D-N-acetylglucosaminidase (NAG) were measured. Serum MN and Cr measurements were contracted to Oriental Yeast Co., Ltd., and urinary NAG and Cr measurements were to SRL, Inc.
The obtained thin slices were stained with periodic acid-Shiff (PAS) and immunostained with the renal injury marker Kidney Injury Molecule-1 (KIM-1). The immunostaining was performed using VECTASTAIN Elite ABC Kit (Vector Laboratories, Inc.).

C57BL/6J mice [2] = test: Inhibition of contrast-induced renal injuries in murine contrast nephropathy model (Example 2); format: in vivo, mouse
Protocol: In order to confirm the ability of cilastatin to inhibit renal injuries, C57BL/6J mice were simultaneously administered with an iodinated contrast medium and cilastatin, and the results were analyzed.
Left kidneys were extracted from the C57BL/6J mice, and 14 days later, right kidney pedicles were ligated for 30 minutes. Thereafter, reperfusion was carried out. […]
a) Contrast medium+cilastatin-treated group: 200 μL of iomeprol (CM)+400 mg/kg cilastatin (CS) (100 LL) b) Contrast medium+normal saline-treated group: 200 μL of iomeprol (CM)+100 μL of NS For each of the groups, after 48 hours from the medication, blood and urine samples were collected, and serum Cr, MN and cystatin C levels, and urinary Cr, NAG and KIM-1 levels were measured. Further, right kidneys were extracted and histologically evaluated by immunostaining with KIM-1 and staining with PAS. […] Serum cystatin C and urinary KIM-1 measurements were contracted to Oriental Yeast Co., Ltd.
0.5±: Clear but weak granular staining present focally along the luminal surface of non-atrophic proximal tubules 1+: Clear but weak granular staining completely surrounding the luminal surface of non-atrophic proximal tubules 2+: Moderately intense granular staining completely surrounding the luminal surface of non-atrophic proximal tubules and extending into intercellular junctions 3+: Strong large granular staining completely surrounding the luminal surface of non-atrophic proximal tubules and extending into intercellular junctions […]
Individuals meeting these criteria were regarded as individuals with onset of contrast nephropathy.

serum Cr compared to the control (NS) group (C57BL/6J mice [1]; 200 μL iomeprol tail vein 24 h after reperfusion, evaluated 48 h after administration, FIG. 1): significant (t-test) increase | PAS staining of kidney tissue (C57BL/6J mice [1]; 200 μL iomeprol, 48 h after administration, FIG. 3): formation of vacuoles was observed
SMILES: CN(C(=O)CO)c1c(I)c(C(=O)NCC(O)CO)c(I)c(C(=O)NCC(O)CO)c1I (stereo not drawn) [iomeprol]
KIM-1 expression in kidney tissue (immunostaining) (C57BL/6J mice [1]; 200 μL iomeprol, 48 h after administration, FIG. 2): widely expressed mainly in the S1 and S2 segments of renal proximal tubular epithelial cells | percentage of individuals with onset of contrast nephropathy (C57BL/6J mice [2]; 200 μL iomeprol + 100 μL normal saline, 48 h after medication): 27% | KIM-1 expression in kidney tissue (immunostaining) (C57BL/6J mice [2]; iomeprol + normal saline, individuals with increased serum creatinine, FIG. 17): widely expressed, mainly in the S1 and S2 segments | PAS staining of kidney tissue (C57BL/6J mice [2]; iomeprol + normal saline, individuals with increased serum creatinine, FIG. 19): formation of vacuoles in renal proximal tubular epithelial cells was observed
